{"source": "patent US20120076781A1", "about": "“METHODS OF TREATING CANCERS WITH HER3 ANTISENSE OLIGONUCLEOTIDES” (ENZON PHARMACEUTICALS, INC., priority 2009, published 2012)", "key": {"[1]": {"test_system": "Mouse HER3 mRNA", "experiment": "HER3 mRNA knockdown in liver of nude mice bearing 15PC3 xenografts, qd x 5 (qRT-PCR)", "format": "in vivo", "settings": "i.v.", "method": "(§1) To evaluate the knockdown efficacy of the HER3 oligomeric compounds in vivo, the female nude mice bearing 15PC3 xenografts developed by subcutaneous injection of 5×10^6 cells/mouse into the right axillary flank, were injected intravenously with the oligomers at various doses and injection schedules (i.e. single dose, qd, q3d, q4d). Scrambled oligomer SEQ ID NO: 236 served as a negative control. 24 hours after the last injection, the mice were euthanized and liver and tumor tissues were collected in RNAlater solution (Ambion). Total RNA was purified from the tissues and the levels of HER3 mRNA were determined by quantitative reverse transcription-real time PCR (qRT-PCR) using the QuantiTect Probe RT-PCR kit (Cat#: 204443; Qiagen). GAPDH mRNA served as an internal control.\n(§2) 200 ng of total RNA was used in the PCR reaction. The data analyses were performed by using the ABI-7500 PCR Fast System included software.\n(§3) Data in Table 5 are presented as % HER3 mRNA levels relative to saline treated controls in liver and tumor samples after i.v. dosing of animals on 5 consecutive days with oligonucleotides in the doses indicated."}, "[2]": {"test_system": "human HER3 mRNA", "experiment": "HER3 mRNA knockdown in 15PC3 xenograft tumor in nude mice, qd x 5 (qRT-PCR)", "format": "in vivo", "settings": "i.v., relative to saline controls", "method": "as §1, §2, §3"}, "[3]": {"test_system": "HER3 mRNA", "experiment": "HER3 mRNA knockdown in 15PC3 xenograft tumor, different dosing cycle", "format": "in vivo, human", "settings": "every third day", "method": "as §1\n(§4) The knockdown efficacy of oligomers was evaluated in vivo in nude mice bearing xenograft tumors derived from 15PC3 cells or A549 cells (NSCLC) or N87 cells (gastric carcinoma) using a similar protocol to the one described above in Example 11. Oligomers were administered by injection every third day in 2-4 doses. Tissues were harvested 3 or 4 days after the last injection.\n(§5) Data in Tables 6 and 7 are presented as % HER3 mRNA or HIF-1 alpha mRNA relative to saline treated controls in liver and tumor samples after i.v. dosing of animals with the indicated oligomers."}, "[4]": {"test_system": "HIF-1 alpha mRNA", "experiment": "HIF-1 alpha mRNA in 15PC3 xenograft tumor, different dosing cycle", "format": "in vivo, human", "settings": "60.2 x 2 or 3 mg/kg i.v., every third day", "method": "as §1, §4, §5"}, "[5]": {"test_system": "HER3 mRNA", "experiment": "HER3 mRNA knockdown in liver of xenograft-bearing nude mice, different dosing cycle", "format": "in vivo, mouse", "settings": "for Liver HER3 mRNA relative to saline treated controls: 15PC3 xenograft mice, every third day", "method": "as §1\nas §4, with “Oligomers were administered by injection every third day in 2-4 doses.” left out\nas §5"}, "[6]": {"test_system": "HER3 mRNA", "experiment": "HER3 mRNA knockdown in A549 (NSCLC) xenograft tumor", "format": "in vivo, human", "settings": "35 mg/kg, q4d x 3, i.v.", "method": "as §1, §4, §5"}, "[7]": {"test_system": "HER3 mRNA", "experiment": "HER3 mRNA knockdown in N87 (gastric carcinoma) xenograft tumor", "format": "in vivo, human", "settings": "25 mg/kg, q3d x 5, i.v.", "method": "as §1\nas §4, with “Oligomers were administered by injection every third day in 2-4 doses.” left out\nas §5"}, "[8]": {"test_system": "gefitinib-resistant HCC827 cells", "experiment": "Colony growth of gefitinib-resistant HCC827R cells (MTT staining, colony count)", "format": "cell-based, human", "settings": "1 μM, 10 days", "method": "(§6) HCC827 lung adenocarcinoma cells (ATCC CRL-2868) were maintained at 37° C. in a humidified atmosphere of 5% CO2 and 95% air in RPMI medium supplemented with 10% fetal bovine serum. To generate gefitinib resistance, cells were treated with increasing amounts of gefitinib (up to 500 nM) for a period of 3 months.\n(§7) HCC287 and HCC287R cells were plated in duplicate at 200 cells/well of a 6-well plate and incubated for 24 hours. Cells were treated with 1 μM of ON180 (SEQ ID NO: 180) and incubated for 10 days, after which cells were stained with MTT and the number of colonies counted. Percent of control was calculated for both HCC827 and […] cells."}, "[9]": {"test_system": "HCC827 gefitinib-sensitive cells", "experiment": "Colony growth of gefitinib-sensitive HCC827 cells (MTT staining, colony count)", "format": "cell-based, human", "settings": "1 μM, 10 days", "method": "as §6, §7"}, "[10]": {"test_system": "HCC827 human cell line xenograft", "experiment": "Tumor growth in mouse xenograft model of human non-small cell lung cancer", "format": "in vivo", "settings": "at approximately 31 days"}, "[11]": {"test_system": "HER3 and P-HER3", "experiment": "Feedback upregulation of HER3 and P-HER3 by lapatinib in BT474, SKBR3 and MDA453 cells", "format": "cell-based, human", "settings": "lapatinib 1 μM, trastuzumab 10 μg/ml, SEQ ID NO: 180 5 μM, 0-48 hours"}}, "note": "In the oligonucleotide strings, read from the 5' end, every base follows the letter of its sugar. An asterisk marks phosphorothioate; unmarked linkages are phosphodiester. Other units and linkages are bracketed, terminal groups are in braces. A string of capitals states the bases alone. l = locked nucleic acid (LNA); [5mC] = 5-methylcytosine; d = 2'-deoxy (DNA)"}
{"substance": "TSASGScScStSgStScSaScStStSCSTSC (antisense lT*lA*lG*dC*dC*dT*dG*dT*dC*dA*dC*dT*dT*l[5mC]*lT*l[5mC]) [SEQ ID NO: 180, β-D-oxy-LNA/DNA phosphorothioate gapmer antisense oligonucleotide targeting HER3]", "values": [{"measurement": "HER3 mRNA Liver", "setting": "[1]; 19.8 mg/kg", "result": "1.7 ± 0.6 % of Sal ctrl"}, {"measurement": "HER3 mRNA Liver", "setting": "[1]; 25.6 mg/kg", "result": "3 ± 0.3 % of Sal ctrl"}, {"measurement": "HER3 mRNA Liver", "setting": "[1]; 31.3 mg/kg", "result": "1.6 ± 0.3 % of Sal ctrl"}, {"measurement": "HER3 mRNA Liver", "setting": "[1]; 66 mg/kg", "result": "6 ± 5.3 % of Sal ctrl"}, {"measurement": "HER3 mRNA Liver", "setting": "[1]; 85.3 mg/kg", "result": "1 ± 0.3 % of Sal ctrl"}, {"measurement": "HER3 mRNA Tumor", "setting": "[2]; 19.8 mg/kg", "result": "83.1 ± 19.5", "unit": "%"}, {"measurement": "HER3 mRNA Tumor", "setting": "[2]; 25.6 mg/kg", "result": "65 ± 20.2", "unit": "%"}, {"measurement": "HER3 mRNA Tumor", "setting": "[2]; 31.3 mg/kg", "result": "37 ± 5.8", "unit": "%"}, {"measurement": "HER3 mRNA Tumor", "setting": "[2]; 66 mg/kg", "result": "32.3 ± 9.7", "unit": "%"}, {"measurement": "HER3 mRNA Tumor", "setting": "[2]; 85.3 mg/kg", "result": "25.8 ± 4.1", "unit": "%"}, {"measurement": "Tumor HER3 mRNA relative to saline treated controls", "setting": "[3]; 60.2 x 4 mg/kg i.v.", "result": "54.2 ± 9.1", "unit": "%"}, {"measurement": "Tumor HER3 mRNA relative to saline treated controls", "setting": "[3]; 60.2 x 2 or 3 mg/kg i.v.", "result": "47.1 ± 2.2", "unit": "%"}, {"measurement": "Tumor Hif1A mRNA relative to saline treated controls", "setting": "[4]", "result": "101 ± 7.3", "unit": "%"}, {"measurement": "Liver HER3 mRNA relative to saline treated controls", "setting": "[5]; 60.2 x 4 mg/kg i.v.", "result": "31.8 ± 5", "unit": "%"}, {"measurement": "Liver HER3 mRNA relative to saline treated controls", "setting": "[5]; 60.2 x 2 or 3 mg/kg i.v.", "result": "6.9 ± 3.6", "unit": "%"}, {"measurement": "HER3 Liver", "setting": "[5]; A549 xenograft mice, 35 mg/kg, q4d x 3, i.v.", "result": "31.8 ± 5.7", "unit": "% saline control"}, {"measurement": "HER3 Liver", "setting": "[5]; N87 xenograft mice, 25 mg/kg, q3d x 5, i.v.", "result": "24.7 ± 3.1", "unit": "% saline control"}, {"measurement": "HER3 Tumor", "setting": "[6]", "result": "54.6 ± 15.2", "unit": "% saline control"}, {"measurement": "HER3 Tumor", "setting": "[7]", "result": "46.6 ± 13.4", "unit": "% saline control"}, {"measurement": "reduction in cell growth as compared to the untreated control", "setting": "[8]", "result": "greater than 80%"}, {"measurement": "reduction in cell growth as compared to the untreated control", "setting": "[9]", "result": "about 50%"}, {"measurement": "Mean tumor volume reduced vs. saline control", "setting": "[10]; 30 mg/kg i.v.", "result": 65.5, "unit": "%"}, {"measurement": "Mean tumor volume reduced vs. saline control", "setting": "[10]; 45 mg/kg i.v.", "result": 81.3, "unit": "%"}, {"measurement": "prevention of feedback upregulation of HER3 and P-HER3 expression by lapatinib", "setting": "[11]", "result": "able to prevent feedback upregulation of HER3 and P-HER3 expression by lapatinib"}]}
